Experimental data reported in patent US20260115194A1, “NEW TREATMENTS FOR PAIN” (Sevenless Therapeutics Limited, priority 2023, published 2026).
pIC50: −log10 of the molar value.

Molecular target: T1, KRAS WT/SOS1 (Homo sapiens, UniProt Q07889)
T1 sequence (Q07889 1-1333): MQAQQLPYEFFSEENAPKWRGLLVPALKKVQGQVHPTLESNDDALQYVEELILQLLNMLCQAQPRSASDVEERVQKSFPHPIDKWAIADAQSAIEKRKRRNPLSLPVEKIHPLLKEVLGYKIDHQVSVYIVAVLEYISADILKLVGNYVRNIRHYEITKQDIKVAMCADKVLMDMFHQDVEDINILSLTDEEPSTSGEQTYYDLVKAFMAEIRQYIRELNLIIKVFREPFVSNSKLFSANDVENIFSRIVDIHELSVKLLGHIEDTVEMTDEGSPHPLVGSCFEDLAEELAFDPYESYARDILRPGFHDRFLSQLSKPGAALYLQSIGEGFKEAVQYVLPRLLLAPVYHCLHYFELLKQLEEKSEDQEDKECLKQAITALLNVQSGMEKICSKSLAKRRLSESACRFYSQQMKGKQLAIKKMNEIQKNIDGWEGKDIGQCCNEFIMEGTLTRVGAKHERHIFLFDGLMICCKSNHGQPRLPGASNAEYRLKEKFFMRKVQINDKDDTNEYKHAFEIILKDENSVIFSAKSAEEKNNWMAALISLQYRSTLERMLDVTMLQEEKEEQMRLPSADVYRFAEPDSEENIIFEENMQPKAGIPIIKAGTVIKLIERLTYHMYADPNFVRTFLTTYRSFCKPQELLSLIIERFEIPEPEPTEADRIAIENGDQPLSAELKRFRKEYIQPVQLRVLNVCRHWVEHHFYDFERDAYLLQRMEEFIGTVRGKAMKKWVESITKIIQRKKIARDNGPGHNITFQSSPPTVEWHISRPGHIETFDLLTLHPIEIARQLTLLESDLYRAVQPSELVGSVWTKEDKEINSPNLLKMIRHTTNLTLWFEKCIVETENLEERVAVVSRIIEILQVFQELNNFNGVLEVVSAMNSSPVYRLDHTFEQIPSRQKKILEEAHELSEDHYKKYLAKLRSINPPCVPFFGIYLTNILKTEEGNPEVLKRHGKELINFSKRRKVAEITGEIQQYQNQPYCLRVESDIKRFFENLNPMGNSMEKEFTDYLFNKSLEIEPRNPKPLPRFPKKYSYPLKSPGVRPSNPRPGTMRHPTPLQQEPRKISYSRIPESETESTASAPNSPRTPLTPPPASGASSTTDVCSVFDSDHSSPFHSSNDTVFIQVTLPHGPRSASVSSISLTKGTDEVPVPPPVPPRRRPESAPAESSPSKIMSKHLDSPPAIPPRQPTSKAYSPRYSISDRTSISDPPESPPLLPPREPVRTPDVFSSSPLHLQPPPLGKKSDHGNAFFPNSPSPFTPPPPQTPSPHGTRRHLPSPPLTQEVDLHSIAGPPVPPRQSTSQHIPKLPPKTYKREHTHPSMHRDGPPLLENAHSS
Assay: HTRF KRAS WT/SOS1 PPI kit (Cisbio) screen for SOS1 inhibitors
Assay type: binding
Conditions: 10-point 1/2-log dilution from 10 μM, 60 minutes at room temperature
Protocol: Compounds were screened using an HTRF KRAS WT/SOS1 PPI kit provided by Cis bio, according to the manufacturer's instructions, with the modifications described below. All reagents were allowed to equilibrate to room temperature and diluted to working stock in Binding Domain Detection buffer (BDD buffer). Stock solutions were prepared by adding 1 part Tag1-KRAS WT/GTP to 1 part Tag2-SOS1 and 1 part BDD. Separately, 1 part Anti-Tag1 XL665 antibody premix was added to Anti-Tag2 Tb cryptate antibody premix. BI-3406 (Selleck Chemicals) was used as a standard, solubilised to 10 mM in DMSO. Test compounds were also solubilised to 10 mM in DMSO. […] Per well, 6 μL of Tag1-KRAS WT/GTP premix, 4 ul Tag2-SOS1 premix and 10 μl of Anti-Tag1 XL665 and Anti-Tag2 Tb cryptate antibodies were then added using a E1-ClipTip™ Electronic Adjustable Multichannel Equalizer Pipette. After the final addition, the plate was covered and placed in the benchtop incubator set at 22° C. The reaction was incubated for 60 minutes at room temperature, prior to reading using a Pherastar FSX plate reader.

`Cc1nc(N[C@H](C)c2cccc(C(F)F)c2F)c2cc(S(=O)(=O)N3CC4CC(C3)O4)ncc2n1` [Example 18, 6-((6-oxa-3-azabicyclo [3.1.1]heptan-3-yl)sulfonyl)-N—((R)-1-(3-(difluoromethyl)-2-fluorophenyl)ethyl)-2-methylpyrido[3,4-d] pyrimidin-4-amine] showed a pIC50 greater than 7.00.
